# Laboratory results taken from ChEMBL document CHEMBL4402597, “Truncated (N)-Methanocarba Nucleosides as Partial Agonists at Mouse and Human A3 Adenosine Receptors: Affinity Enhancement by N6-(2-Phenylethyl) Substitution” (J Med Chem, 2020).
# Tests used:
# [1] = target: T1, Adenosine receptor A1 (Homo sapiens) (UniProt P30542); experiment: Displacement of [3H]R-PIA from recombinant human A1AR expressed in HEK293 cell membranes at 10 uM measured after 60 mins by liquid scintillation counting method relative to control
# T1 sequence (whole entry): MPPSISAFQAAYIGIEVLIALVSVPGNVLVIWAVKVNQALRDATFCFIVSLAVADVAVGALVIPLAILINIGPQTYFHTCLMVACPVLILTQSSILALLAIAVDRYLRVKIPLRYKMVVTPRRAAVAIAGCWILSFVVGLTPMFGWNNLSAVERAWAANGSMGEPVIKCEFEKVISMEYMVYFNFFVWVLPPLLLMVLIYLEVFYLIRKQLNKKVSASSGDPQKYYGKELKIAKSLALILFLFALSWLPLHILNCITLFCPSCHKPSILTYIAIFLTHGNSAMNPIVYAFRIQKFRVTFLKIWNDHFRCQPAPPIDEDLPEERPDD
# [2] = target: T2, Adenosine receptor A2a (Homo sapiens, UniProt P29274); experiment: Displacement of [3H]CGS21680 from recombinant human A2AAR expressed in HEK293 cell membranes at 10 uM measured after 60 mins by liquid scintillation counting method relative to control
# T2 sequence (P29274 whole entry): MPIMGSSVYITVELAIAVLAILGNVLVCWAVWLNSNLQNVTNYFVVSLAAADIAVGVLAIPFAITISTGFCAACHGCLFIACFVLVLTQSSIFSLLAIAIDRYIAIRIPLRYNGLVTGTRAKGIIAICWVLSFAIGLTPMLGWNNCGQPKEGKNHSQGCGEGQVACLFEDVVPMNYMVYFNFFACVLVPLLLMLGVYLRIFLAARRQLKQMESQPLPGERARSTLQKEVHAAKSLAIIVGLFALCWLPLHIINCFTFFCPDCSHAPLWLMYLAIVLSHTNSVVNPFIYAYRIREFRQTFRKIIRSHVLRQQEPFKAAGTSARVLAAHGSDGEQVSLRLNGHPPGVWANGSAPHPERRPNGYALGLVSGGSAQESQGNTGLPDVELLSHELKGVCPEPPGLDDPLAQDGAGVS
# [3] = target: T3, Adenosine receptor A3 (Homo sapiens, UniProt P0DMS8); experiment: biochemical
# T3 sequence (P0DMS8 whole entry): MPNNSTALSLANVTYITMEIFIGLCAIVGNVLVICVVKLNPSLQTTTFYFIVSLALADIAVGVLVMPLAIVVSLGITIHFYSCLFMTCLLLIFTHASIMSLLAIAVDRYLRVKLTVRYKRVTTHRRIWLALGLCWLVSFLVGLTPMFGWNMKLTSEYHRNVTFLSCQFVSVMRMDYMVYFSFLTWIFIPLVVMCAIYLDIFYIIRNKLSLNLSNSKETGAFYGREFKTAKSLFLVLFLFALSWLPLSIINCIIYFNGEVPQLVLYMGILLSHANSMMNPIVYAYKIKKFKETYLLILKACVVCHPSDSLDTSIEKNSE
# [4] = target: T4, Adenosine receptor A3 (Mus musculus, UniProt Q61618); experiment: biochemical
# T4 sequence (Q61618 whole entry): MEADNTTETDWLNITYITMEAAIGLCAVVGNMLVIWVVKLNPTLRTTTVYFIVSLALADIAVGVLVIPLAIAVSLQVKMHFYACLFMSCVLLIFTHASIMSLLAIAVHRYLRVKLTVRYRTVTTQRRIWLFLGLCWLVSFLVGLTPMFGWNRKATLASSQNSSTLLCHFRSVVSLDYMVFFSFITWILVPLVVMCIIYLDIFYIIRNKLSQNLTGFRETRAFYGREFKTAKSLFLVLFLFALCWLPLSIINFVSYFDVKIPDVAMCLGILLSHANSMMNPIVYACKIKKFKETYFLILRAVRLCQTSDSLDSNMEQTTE
# [5] = target: T5, Adenosine receptor A1 (Homo sapiens, UniProt P30542); experiment: Displacement of [3H]R-PIA from recombinant human A1AR expressed in HEK293 cell membranes measured after 60 mins by liquid scintillation counting method
# T5 sequence (P30542 whole entry): T1 sequence (whole entry)
# [6] = target: T6, Adenosine receptor A1 (Mus musculus, UniProt Q60612); experiment: Displacement of [3H]R-PIA from recombinant mouse A1AR expressed in HEK293 cell membranes measured after 60 mins by liquid scintillation counting method
# T6 sequence (Q60612 whole entry): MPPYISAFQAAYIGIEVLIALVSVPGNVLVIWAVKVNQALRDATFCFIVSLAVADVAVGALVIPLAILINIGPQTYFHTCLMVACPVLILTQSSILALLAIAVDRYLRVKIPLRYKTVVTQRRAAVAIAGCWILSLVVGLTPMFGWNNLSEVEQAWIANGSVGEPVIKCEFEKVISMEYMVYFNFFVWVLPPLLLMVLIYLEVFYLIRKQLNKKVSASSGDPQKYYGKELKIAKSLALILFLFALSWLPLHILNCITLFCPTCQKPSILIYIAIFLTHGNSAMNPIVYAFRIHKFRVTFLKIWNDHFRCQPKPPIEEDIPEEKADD
# [7] = target: T2, Adenosine receptor A2a; experiment: Displacement of [3H]CGS21680 from recombinant human A2AAR expressed in HEK293 cell membranes measured after 60 mins by liquid scintillation counting method
# [8] = target: T7, Adenosine receptor A3 (Homo sapiens) (UniProt P0DMS8); experiment: Partial agonist activity at recombinant human A3AR expressed in HEK293 cells assessed as inhibition of forskolin-stimulated cAMP accumulation by measuring residual cAMP level measured after 30 mins in presence of A2BAR blocker PSB-603 by Glo-sensor assay relative to control; format: functional, cell-based
# T7 sequence (whole entry): T3 sequence (P0DMS8 whole entry)
# [9] = target: T7, Adenosine receptor A3 (Homo sapiens); experiment: Partial agonist activity at recombinant human A3AR expressed in HEK293 cells assessed as inhibition of forskolin-stimulated cAMP accumulation at 10 uM measured after 30 mins in presence of A2BAR blocker PSB-603 by Glo-sensor assay relative to Cl-IB-MECA; format: functional, cell-based
# [10] = target: T3, Adenosine receptor A3; experiment: Partial agonist activity at recombinant human A3AR expressed in HEK293 cells assessed as inhibition of forskolin-stimulated cAMP accumulation measured after 30 mins in presence of A2BAR blocker PSB-603 by Glo-sensor assay; format: functional, cell-based
# [11] = target: Translocator protein (Homo sapiens, UniProt P30536); experiment: Inhibition of TSPO (unknown origin)
# Sequence of Translocator protein (P30536 whole entry): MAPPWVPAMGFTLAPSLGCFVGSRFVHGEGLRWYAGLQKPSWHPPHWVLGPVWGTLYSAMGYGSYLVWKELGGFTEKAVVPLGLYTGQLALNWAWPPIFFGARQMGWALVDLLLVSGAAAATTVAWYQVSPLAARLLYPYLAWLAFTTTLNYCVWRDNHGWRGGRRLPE
# [12] = target: T8, Adenosine receptor A3 (Mus musculus) (UniProt Q61618); experiment: Partial agonist activity at recombinant mouse A3AR expressed in HEK293 cell membranes assessed as stimulation of [35S]GTPgammaS binding measured after 2 hrs in presence of A2BAR blocker PSB-603 by liquid scintillation counting analysis relative to adenosine-5'-Nethyluronamide; format: functional
# T8 sequence (whole entry): T4 sequence (Q61618 whole entry)
smiles,measurement,setting,value
COc1cc(CCNc2nc(C#Cc3cccnc3)nc3c2ncn3[C@H]2[C@H](O)[C@H](O)[C@@H]3C[C@@H]32)ccc1O,inhibition,[1],36%
same,inhibition,[2],39%
same,Ki,[3],6.7 nM
same,Ki,[4],155 nM
O[C@@H]1[C@H](O)[C@@H]2C[C@@H]2[C@H]1n1cnc2c(NCCc3cccc(F)c3)nc(C#Cc3ccc(F)s3)nc21,Ki,[5],2290 nM
same,inhibition,[2],48%
same,Ki,[3],55.8 nM
same,Ki,[4],404 nM
Cc1cccc(CCNc2nc(C#Cc3ccc(Cl)s3)nc3c2ncn3[C@H]2[C@H](O)[C@H](O)[C@@H]3C[C@@H]32)c1,inhibition,[1],29%
same,inhibition,[2],50%
same,Ki,[3],106 nM
same,Ki,[4],675 nM
O[C@@H]1[C@H](O)[C@@H]2C[C@@H]2[C@H]1n1cnc2c(NCCc3ccc(F)c(F)c3)nc(C#Cc3ccc(Cl)s3)nc21,inhibition,[1],28%
same,inhibition,[2],57%
same,Ki,[3],47.1 nM
same,Ki,[4],2520 nM
O[C@@H]1[C@H](O)[C@@H]2C[C@@H]2[C@H]1n1cnc2c(NCCc3cccc(F)c3)nc(C#Cc3ccccc3)nc21,Ki,[5],2680 nM
same,inhibition,[2],27%
same,Ki,[3],35.9 nM
same,Ki,[4],264 nM
O[C@@H]1[C@H](O)[C@@H]2C[C@@H]2[C@H]1n1cnc2c(NCCc3cccc(Cl)c3)nc(C#Cc3ccc(Cl)s3)nc21,inhibition,[1],39%
same,inhibition,[2],59%
same,Ki,[3],58.4 nM
same,Ki,[4],531 nM
O[C@@H]1[C@H](O)[C@@H]2C[C@@H]2[C@H]1n1cnc2c(N[C@H]3C[C@@H]3c3ccccc3)nc(C#Cc3ccc(Cl)s3)nc21,inhibition,[1],32%
same,inhibition,[2],44%
same,Ki,[3],80.5 nM
same,Ki,[4],1140 nM
COc1cc(CCNc2nc(C#Cc3ccc(Cl)s3)nc3c2ncn3[C@H]2[C@H](O)[C@H](O)[C@@H]3C[C@@H]32)ccc1O,Ki,[5],649 nM
same,inhibition,[2],38%
same,Ki,[3],9.52 nM
same,Ki,[4],74.7 nM
COc1cc(CCNc2nc(C#Cc3ccccc3F)nc3c2ncn3[C@H]2[C@H](O)[C@H](O)[C@@H]3C[C@@H]32)ccc1O,Ki,[5],186 nM
same,Ki,[6],620 nM
same,Ki,[7],5850 nM
same,Ki,[3],5.42 nM
same,Ki,[4],21.5 nM
COc1cc(CCNc2nc(C#Cc3ccc(Br)s3)nc3c2ncn3[C@H]2[C@H](O)[C@H](O)[C@@H]3C[C@@H]32)ccc1O,inhibition,[1],15%
same,Ki,[6],2840 nM
same,inhibition,[2],38%
same,Emax,[8],61%
same,Emax,[9],50%
same,EC50,[10],692 nM
same,Ki,[3],3.24 nM
same,Ki,[4],26 nM
COc1cc(CCNc2nc(C#Cc3cccc(F)c3)nc3c2ncn3[C@H]2[C@H](O)[C@H](O)[C@@H]3C[C@@H]32)ccc1O,inhibition,[1],38%
same,inhibition,[2],51%
same,Ki,[3],4.63 nM
same,Ki,[4],72.2 nM
COc1ccc(CCNc2nc(C#Cc3ccccc3)nc3c2ncn3[C@H]2[C@H](O)[C@H](O)[C@@H]3C[C@@H]32)cc1OC,Ki,[5],208 nM
same,inhibition,[2],28%
same,Ki,[3],16.3 nM
same,Ki,[4],331 nM
COc1cc(CCNc2nc(I)nc3c2ncn3[C@H]2[C@H](O)[C@H](O)[C@@H]3C[C@@H]32)ccc1O,inhibition,[1],50%
same,inhibition,[2],49%
same,Ki,[3],9.1 nM
same,Ki,[4],92.5 nM
O[C@@H]1[C@H](O)[C@@H]2C[C@@H]2[C@H]1n1cnc2c(NCCc3cccc(F)c3)nc(C#Cc3ccc(Cl)s3)nc21,inhibition,[1],31%
same,inhibition,[2],55%
same,Ki,[11],200 nM
same,Ki,[3],42.2 nM
same,Ki,[4],488 nM
Nc1ccc(CCNc2nc(C#Cc3ccccc3)nc3c2ncn3[C@H]2[C@H](O)[C@H](O)[C@@H]3C[C@@H]32)cc1,inhibition,[1],30%
same,inhibition,[2],26%
same,Ki,[3],14.2 nM
same,Ki,[4],60.4 nM
Oc1ccc(CCNc2nc(C#Cc3ccccc3)nc3c2ncn3[C@H]2[C@H](O)[C@H](O)[C@@H]3C[C@@H]32)cc1,inhibition,[1],29%
same,inhibition,[2],32%
same,Ki,[3],45.6 nM
same,Ki,[4],76.4 nM
Oc1ccc(CCNc2nc(C#Cc3ccccc3)nc3c2ncn3[C@H]2[C@H](O)[C@H](O)[C@@H]3C[C@@H]32)cc1F,inhibition,[1],44%
same,inhibition,[2],17%
same,Ki,[3],9.03 nM
same,Ki,[4],61.6 nM
O[C@@H]1[C@H](O)[C@@H]2C[C@@H]2[C@H]1n1cnc2c(NCCc3ccccc3)nc(C#Cc3ccc(Cl)s3)nc21,inhibition,[1],10%
same,inhibition,[2],46%
same,Emax,[8],37.6%
same,Emax,[9],80%
same,EC50,[10],2410 nM
same,Ki,[3],8.17 nM
same,Ki,[4],995 nM
O[C@@H]1[C@H](O)[C@@H]2C[C@@H]2[C@H]1n1cnc2c(NCCc3ccccc3)nc(C#Cc3ccccc3Cl)nc21,Ki,[4],980 nM
COc1ccc(CCNc2nc(C#Cc3ccccc3)nc3c2ncn3[C@H]2[C@H](O)[C@H](O)[C@@H]3C[C@@H]32)cc1O,inhibition,[1],49%
same,inhibition,[2],27%
same,Ki,[3],6.85 nM
same,Ki,[4],122 nM
CCNC(=O)[C@H]1O[C@@H](n2cnc3c(N)ncnc32)[C@H](O)[C@@H]1O,Emax,[12],100%
COc1cc(CCNc2nc(C#Cc3ccc(F)c(F)c3)nc3c2ncn3[C@H]2[C@H](O)[C@H](O)[C@@H]3C[C@@H]32)ccc1O,Ki,[5],341 nM
same,inhibition,[2],33%
same,Ki,[3],12.8 nM
same,Ki,[4],75 nM
Oc1ccc(CCNc2nc(C#Cc3ccccc3)nc3c2ncn3[C@H]2[C@H](O)[C@H](O)[C@@H]3C[C@@H]32)cc1O,inhibition,[1],28%
same,Ki,[6],1420 nM
same,inhibition,[2],27%
same,Ki,[3],48.8 nM
same,Ki,[4],39.8 nM
COc1cc(CCNc2nc(C#Cc3ccc(F)cc3)nc3c2ncn3[C@H]2[C@H](O)[C@H](O)[C@@H]3C[C@@H]32)ccc1O,inhibition,[1],39%
same,inhibition,[2],51%
same,Ki,[3],6.51 nM
same,Ki,[4],54.4 nM
